Results published in patent US20130040908A1, “SUBSTITUTION DERIVATIVES OF N6-BENZYLADENOSINE-5' -MONOPHOSPHATE, METHODS OF PREPARATION THEREOF, USE THEREOF AS MEDICAMENTS, AND THERAPEUTIC PREPARATIONS CONTAINING THESE COMPOUNDS” (BIOAPEX, S.R.O., priority 2010, published 2013).

Experiments:
Human lymphocytes = assay: Immunosuppressive activity, 3H-thymidine incorporation in concanavalin A activated lymphocytes; format: cell-based; conditions: 72 hours, [3H]-TdR
From the text: One of the most important parameters of specific cellular immunity is the proliferative response of lymphocytes to antigens or polyclonal mitogens. The majority of normal mammalian peripheral lymphocytes comprise resting cells. Antigens or nonspecific polyclonal mitogens have the capacity to activate lymphoid cells and this is accompanied by dramatic changes of intracellular metabolism (mitochondrial activity, protein synthesis, nucleic acids synthesis, formation of blastic cells and cellular proliferation). […] Variety of in vitro assays was developed to measure proliferative response of lymphocytes. The most commonly used is ^3H-thymidine incorporation method.
During cell proliferation, DNA has to be replicated before the cell is divided into two daughter cells. This close association between cell doublings and DNA synthesis is very attractive for assessing cell proliferation. If labelled DNA precursors are added to the cell culture, cells that are about to divide incorporate the labelled nucleotide into their DNA. Traditionally, those assays usually involve the use of radiolabelled nucleosides, particularly tritiated thymidine ([^3H]-TdR). The amount of [^3H]-TdR incorporated into the cellular DNA is quantified by liquid scintillation counting. Human heparinized peripheral blood was obtained from healthy volunteers by cubital vein punction. The blood was diluted in PBS (1:3) and mononuclear cells were separated by centrifugation in Ficoll-Hypaque density gradient (Pharmacia, 1.077 g/ml) at 2200 rpm for 30 minutes. Following centrifugation, lymphocytes were washed in PBS and resuspended in cell culture medium (RMPI 1640, 2 mM glutamine, 100 U/ml penicillin, 100 μg/ml streptomycin, 10% fetal calf serum and sodium bicarbonate).
The cells were diluted at target density of 1.100.000 cells/ml and were added by pipette (180 μl) into 96-well microtiter plates. Four-fold dilutions of the intended test concentration were added at time zero in 20 μl aliquots to the microtiter plate wells. Usually, test compound was evaluated at six 4-fold dilutions. In routine testing, the highest well concentration was 266.7 μM. All drug concentrations were examined in duplicates. All wells with exception of unstimulated controls were activated with 50 of concanavalin A (25 μg/ml). Incubations of cells with test compounds lasted for 72 hours at 37° C., in 5% CO2 atmosphere and 100% humidity. At the end of incubation period, the cells were assayed by using the [^3H]-TdR:
Cell cultures were incubated with 0.5 μCi (20 μl of stock solution 500 μCi/ml per well for 6 hours at 37° C. and 5% CO2. The automated cell harvester was used to lyse cells in water and adsorb the DNA onto glass-fiber filters in the format of microtiter plate. The DNA incorporated [^3H]-TdR was retained on the filter while unincorporated material passes through. The filters were dried at room temperature overnight, sealed into a sample bag with 10-12 ml of scintillant. The amount of [^3H]-TdR present in each filter (in cpm) was determined by scintillation counting in a Betaplate liquid scintillation counter. The effective dose of immunosuppressant (ED) was calculated using the following equation: ED=(CCPMdrug exposed well/mean CCPMcontrol wells)×100%. The ED50 value, the drug concentration inhibiting proliferation of 50% of lymphocytes, was calculated from the obtained dose response curves.

P388D1 leukemia = assay: In vivo anticancer activity, survival model of P388D1 leukemia; conditions: oral 250 mg/kg twice daily
Method: Screening of biological activity of compound 21 was performed on survival model of P388D1 leukemia transplanted intraperitoneally with 2.10^5 cells. DBA-2 mice were used as a host. One day following the leukemia transplantation, treatment with 21 was initiated. The drug was given orally by gastric gavages in total volume of 200 μl/dose twice daily at dose 250 mg/kg in two chemotherapy cycles (Days 1-3 and 7-9). The compound 21 was solubilized in 5% […], 30% polyethylene glycol 400, 65% tartar buffer (pH 3.0). Survival analysis of treated animals (10 mice/group) was preformed in comparison with vehicle treated mice using Kaplan-Meier method and the significance was evaluated by the log-rank test. Body weight of experimental animals was evaluated in parallel in order to reflect toxicity and efficacy of therapy. Comparative analysis of body weight was performed using non-parametric t-test.

caspase-3 = assay: Caspase-3 activity in CEM cells (Apo-ONE kit); format: cell-based; conditions: 10 μM, 12 and 24 hours
Method: In the course of apoptosis, caspase cascade is activated. Caspase-3 is an effector caspase that plays a role in the induction of some changes typical for apoptosis (chromatin condensation, DNA fragmentation). Leukemia cell line CEM was cultured in cell culture medium (DMEM containing 5 g/l glucose, 2 mM glutamine, 100 U/ml peniciline, 100 μg/ml streptomycine, 10% fetal calf serum and sodium bicarbonate). 24 hours before treatment, cell suspensions were centrifuged, diluted to concentration of 500000 cells per ml with fresh medium and pipetted in 50 μl, aliquotes into 96-well plate. After 12 and 24 hours of incubation with the test compound, the activity of caspase-3 was measured using commercial kit (Apo-ONE, Promega) that is based on quantification of hydrolysis of fluorogenic substrate Z-DEVD-R110 (excitation 480 nm/emission 520 nm). Reaction specificity was confirmed in a control experiment, when both test compound and caspase-3 inhibitor Ac-DEVD-CHO were added. All experiments were done in triplicate.

Leukemia cell line CEM = assay: Flow cytometry of DNA fragmentation (sub-G1) in CEM cells; format: cell-based; conditions: IC50, triple IC50 and fivefold IC50
Method: One of the hallmarks of apoptosis is fragmentation of DNA. It can be measured by flowcytometry of the cells stained with propidium iodide. Because the fragmentation results in a loss of a fraction of the nuclear DNA, apoptotic cells have a lower DNA content than cells in G1 phase of cell cycle and can be detected as a subG1 peak in the histogram.
Leukemia cell line CEM was cultured in cell culture medium (DMEM containing 5 g/l glucose, 2 mM glutamine, 100 U/ml peniciline, 100 μg/ml streptomycine, 10% fetal calf serum and sodium bicarbonate). 24 hours before treatment, cell suspensions were centrifuged, diluted with fresh medium to concentration of 100000 cells per ml with fresh medium and pipetted in 10 ml aliquotes Petri dishes. After an incubation for a given time period, the cells were collected by centrifugation (4° C., 600 g), washed with PBS (4° C.) and fixed with 70% ethanol at −20° C. overnight. Low molecular weight DNA fragmentse were extracted with citrate buffer (11.36 g trisodium citrate dihydrate/1). The nuclei were stained with the solution of propidium iodide in PBS (10 μg/ml) containing RNase A (60 IU per sample). After 1 hour incubation the samples were analyzed by flowcytometry (excitation 488 nm, emission above 620 nm).

p21^WAF-1 = assay: p21WAF-1 induction in MCF-7 cells (immunoblot); format: cell-based; conditions: MCF-7, 0-100 μM 12 hours; 1 μM 0.5-24 hours
Method: MCF-7 cells cultured at 37° C. in 5% CO2 atmosphere in DMEM medium supplemented with 10% foetal calf serum were treated with compound 28 concentration ranges of 0-100 μM. Compound 28 was added into the medium from the 100 mM stock solution in DMSO. Cells were harvested 12 hours after incubation with compound 28, centrifuged (1000 rpm, 4° C., 5 min), washed twice by ice-cold PBS and re-centrifuged. These washed cells were then lysed by 1×CSB (loading buffer for SDS-PAGE, i.e. electrophoresis of proteins in polyacrylamide gel containing SDS). Cell lysate proteins were separated by SDS-PAGE and transferred onto a nitrocelulose (NC) membrane. NC membrane was blocked by 5% skimmed milk, 0.1% Tween 20 in PBS. Protein level of p21^WAF-1 and actin (as a loaded protein volume control) were detected immunochemically using commercially available specific monoclonal antibodies anti-p21^WAF-1 (Ab-1, Calbiochem) and anti-Actin (Clone AC-40, Sigma-Aldrich). The primary antibodies bind to target proteins were detected using rabbit secondary peroxidase-labeled antibody (RAM-Px, DAKO), followed by chemiluminiscence (ECL, Amersham-Pharmacia).

| SMILES | Human lymphocytes ED50 (Human lymphocytes) [µM] | body weight of treated animals (P388D1 leukemia) | tolerability in animals (P388D1 leukemia) | mean survival time (P388D1 leukemia; Days 1-3 and 7-9, vehicle group 13.9 days) [days] | survival analysis (Kaplan-Meier, log-rank) (P388D1 leukemia; P=0.0409 versus vehicle) | activity of caspase-3 (caspase-3) | DNA fragmentation (apoptotic sub-G1 fraction) (Leukemia cell line CEM) | p21^WAF-1 protein induction (p21^WAF-1) |
| --- | --- | --- | --- | --- | --- | --- | --- | --- |
| O=P(O)(O)OC[C@H]1O[C@@H](n2cnc3c(NCc4ccccc4O)ncnc32)[C@H](O)[C@@H]1O [Compound 21, 6-(2-hydroxybenzylamino)purine riboside-5′-monophosphate] | 6.7 | only slight reduction | good tolerability | 15.4 | significantly better survival | activates caspase-3 | induction of DNA fragmentation | – |
| COc1cccc(CNc2ncnc3c2ncn3[C@@H]2O[C@H](COP(=O)(O)O)[C@@H](O)[C@H]2O)c1O [Compound 28, 6-(2-hydroxy-3-methoxybenzylamino)purine riboside-5′-monophosphate] | 1.2 | – | – | – | – | – | – | efficient p21^WAF-1 protein induction |
